Results on 2 compounds are retold here after ChEMBL document CHEMBL5532657, “Serendipitous discovery of Class I HDAC inhibitors from rational design of molecular glue degraders targeting HDAC” (Eur J Med Chem, 2024).

This assay relates to RS4-11. The assay is described as follows: Induction of cell cycle arrest in human RS4-11 cells assessed as S phase arrest after 48 hrs by PI staining based flow cytometry analysis. The format is functional. The following applies: dose 1-10 µM. In general terms: Flow cytometry measures light scatter and fluorescence of single cells or particles in a stream.

In the case of `Nc1ccccc1NC(=O)c1ccc(CNc2cccc3c2C(=O)N(C2CCC(=O)NC2=O)C3=O)cc1` (configuration not stated), the Activity result was “Dose-Dependent Effect”.
Under `Nc1cc(F)ccc1NC(=O)c1ccc(CNc2cccc3c2C(=O)N(C2CCC(=O)NC2=O)C3=O)cc1` (configuration not stated) stands “Dose-Dependent Effect”.
